Assay results reported in paper PMC3353318 (Bioorganic & Medicinal Chemistry, 2011).

How the values were obtained:
[1] = biological target: A/M2 V27A mutant (Influenza A virus, UniProt P0DOF5, V27A); format: cell-based, influenza A/Udorn/72
[2] = biological target: A/M2 S31N mutant (Influenza A virus, UniProt P0DOF5, S31N); format: cell-based, influenza A/Udorn/72

Substance | inhibition of V27A A/M2 channel activity (in words) [1] | inhibition of S31N A/M2 channel activity (in words) [2]
6,7,8,9,10,11-Hexahydro-9-methyl-5,7:9,11-dimethano-5H-benzocyclononen-7-amine hydrochloride [Compound 3] | Neither 3 nor 11 were able to inhibit | Neither 3 nor 11 were able to inhibit
N,N-Dimethyl-6,7,8,9,10,11-hexahydro-9-methyl-5,7:9,11-dimethano-5H-benzocyclononen-7-amine hydrochloride [Compound 11] | Neither 3 nor 11 were able to inhibit | Neither 3 nor 11 were able to inhibit
N-Benzyl-6,7,8,9,10,11-hexahydro-9-methyl-5,7:9,11-dimethano-5H-benzocyclononen-7-amine hydrochloride [Compound 6] | unable to inhibit | unable to inhibit
